What follows are compounds tested against T1, DLK (Homo sapiens, UniProt Q12852) (assay: DLK TR-FRET assay). Conditions: 5 nM GST-tagged DLK (catalytic domain amino acid 1-520), 40 nM HIS-tagged MKK4 K131M substrate, 30 μM ATP, 60 minutes.
T1 construct: N-terminally GST-tagged DLK (catalytic domain amino acid 1-520) (Carna Bioscience); GST (N); purchased Carna Bioscience
T1 sequence (Q12852 1-520): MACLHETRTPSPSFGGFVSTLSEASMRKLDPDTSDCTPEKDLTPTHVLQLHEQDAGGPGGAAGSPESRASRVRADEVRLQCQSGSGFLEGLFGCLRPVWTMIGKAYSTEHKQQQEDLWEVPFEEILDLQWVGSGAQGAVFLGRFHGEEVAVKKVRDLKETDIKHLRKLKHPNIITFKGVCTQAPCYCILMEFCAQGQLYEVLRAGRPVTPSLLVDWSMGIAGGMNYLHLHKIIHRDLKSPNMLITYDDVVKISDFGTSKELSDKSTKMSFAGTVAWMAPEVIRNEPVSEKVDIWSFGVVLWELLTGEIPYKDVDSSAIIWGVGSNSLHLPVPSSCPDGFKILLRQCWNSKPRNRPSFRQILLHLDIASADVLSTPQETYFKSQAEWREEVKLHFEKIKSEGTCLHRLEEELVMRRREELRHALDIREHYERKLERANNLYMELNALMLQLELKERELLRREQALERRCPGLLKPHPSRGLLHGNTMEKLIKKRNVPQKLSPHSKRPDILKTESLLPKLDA
Format: biochemical
Outline: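 Phosphorylation of HIS-tagged MKK4 K131M (40 nM) by GST-DLK aa 1-520 (5 nM) at 30 μM ATP, pH 7.5, run 60 min at ambient temperature. Compound series started at 20 uM, diluted 1:3. Phospho-MKK4 detected by TR-FRET (Eu cryptate/D2 antibodies, 3 h, EDTA-containing buffer).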

Row | Ki [nM] | SMILES
1 | 0.9 | N#Cc1ccnc(Nc2cc(C3CCN(C4COC4)CC3)cc(N3CCC4CC43)n2)c1 (centres unmarked) [Example 99, 2-[6-(2-Aza-bicyclo[3.1.0]hex-2-yl)-1′-oxetan-3-yl-1′,2′,3′,4′,5′,6′-hexahydro-[4,4′]bipyridinyl-2-ylamino]-isonicotinonitrile]
2 | 11 | N#Cc1ccnc(Nc2cc(C3CCOCC3)cc(N3CC4CC(F)(F)C4C3)n2)c1 (centres unmarked) [Example 100, 2-[6-(6,6-Difluoro-3-aza-bicyclo[3.2.0]hept-3-yl)-4-(tetrahydro-pyran-4-yl)-pyridin-2-ylamino]-isonicotinonitrile]
3 | 38 | COC1CCN(c2cc(C3CCOCC3)cc(Nc3cc(C#N)ccn3)n2)C1 (centres unmarked) [Example 101, 2-[6-(3-Methoxy-pyrrolidin-1-yl)-4-(tetrahydro-pyran-4-yl)-pyridin-2-ylamino]-isonicotinonitrile]
4 | 88 | N#Cc1ccnc(Nc2cc(C3CCOCC3)cc(N3CC4(CCOC4)C3)n2)c1 [Example 102, 2-[6-(6-Oxa-2-aza-spiro[3.4]oct-2-yl)-4-(tetrahydro-pyran-4-yl)-pyridin-2-ylamino]-isonicotinonitrile]
5 | 16 | N#Cc1ccnc(Nc2cc(C3CCOCC3)cc(N3CC4(CCC4(F)F)C3)n2)c1 [Example 103, 2-[6-(5,5-Difluoro-2-aza-spiro[3.3]hept-2-yl)-4-(tetrahydro-pyran-4-yl)-pyridin-2-ylamino]-isonicotinonitrile]
6 | 12.6 | N#Cc1ccnc(Nc2cc(C3CCOCC3)cc(N3CC(F)(F)C3)n2)c1 [Example 104, 2-[6-(3,3-Difluoro-azetidin-1-yl)-4-(tetrahydro-pyran-4-yl)-pyridin-2-ylamino]-isonicotinonitrile]
7 | 7 | N#Cc1ccnc(Nc2cc(C3CCN(C4COC4)CC3)cc(N3CCC3)n2)c1 [Example 105, 2-(6-Azetidin-1-yl-1′-oxetan-3-yl-1′,2′,3′,4′,5′,6′-hexahydro-[4,4′]bipyridinyl-2-ylamino)-isonicotinonitrile]
8 | 10 | N#Cc1ccnc(Nc2cc(C3CCN(C4COC4)CC3)cc(Cl)n2)c1 [Example 106, 2-(6-Chloro-1′-oxetan-3-yl-1′,2′,3′,4′,5′,6′-hexahydro-[4,4′]bipyridinyl-2-ylamino)-isonicotinonitrile]
9 | 120 | Cc1cc(C2CCN(C(=O)C(F)(F)F)CC2)cc(Nc2cc(C#N)ccn2)n1 [Example 107, 2-[6-Methyl-1′-(2,2,2-trifluoro-acetyl)-1′,2′,3′,4′,5′,6′-hexahydro-[4,4′]bipyridinyl-2-ylamino]-isonicotinonitrile]
10 | 93 | CC(=O)N1CCC(c2cc(C)nc(Nc3cc(C#N)ccn3)c2)CC1 [Example 108, 2-(1′-Acetyl-6-methyl-1′,2′,3′,4′,5′,6′-hexahydro[4,4′]bipyridinyl-2-ylamino)-isonicotinonitrile]
11 | 140 | Cc1cc(C2CCN(S(C)(=O)=O)CC2)cc(Nc2cc(C#N)ccn2)n1 [Example 109, 2-(1′-Methanesulfonyl-6-methyl-1′,2′,3′,4′,5′,6′-hexahydro-[4,4′]bipyridinyl-2-ylamino)-isonicotinonitrile]
12 | 93 | Cc1cc(C2CCN(C3COC3)CC2)cc(Nc2cc(C#N)ccn2)n1 [Example 110, 2-(6-Methyl-1′-oxetan-3-yl-1′,2′,3′,4′,5′,6′-hexahydro-[4,4′]bipyridinyl-2-ylamino)-isonicotinonitrile]
13 | 89 | Cc1cc(C2CCNCC2)cc(Nc2cc(C#N)ccn2)n1 [Example 111, 2-(6-Methyl-1′,2′,3′,4′,5′,6′-hexahydro-[4,4′]bipyridinyl-2-ylamino)-isonicotinonitrile]
14 | 220 | Cc1cc(C2=CCOCC2)cc(Nc2cc(C#N)ccn2)n1 [Example 112, 2-[4-(3,6-Dihydro-2H-pyran-4-yl)-6-methyl-pyridin-2-ylamino]-isonicotinonitrile]
15 | 1600 | Cc1cc(C2CCOCC2)cc(Nc2cc(CN)ccn2)n1 [Example 113, (4-Aminomethyl-pyridin-2-yl)-[6-methyl-4-(tetrahydro-pyran-4-yl)-pyridin-2-yl]-amine]
16 | 0.09 | CC1CCCN1c1cc(C2CCN(CC3CCOCC3)C2)cc(Nc2cc(C#N)ccn2)n1 (centres unmarked) [Example 115, 2-{6-(2-Methyl-pyrrolidin-1-yl)-4-[1-(tetrahydro-pyran-4-ylmethyl)-pyrrolidin-3-yl]-pyridin-2-ylamino}-isonicotinonitrile]

Row | Ki [nM] | SMILES
17 | 215 | Cc1cc(C2CCN(C(=O)OC(C)(C)C)CC2)cc(Nc2cc(C#N)ccn2)n1 [Example 116, 2′-(4-Cyano-pyridin-2-ylamino)-6′-methyl-3,4,5,6-tetrahydro-2H-[4,4′]bipyridinyl-1-carboxylic acid tert-butyl ester]
18 | 0.94 | FC1(F)CCN(c2cc(C3CN(C4COC4)C3)cc(Nc3cc(C(F)(F)F)ccn3)n2)C1 [Example 117, [6-(3,3-Difluoro-pyrrolidin-1-yl)-4-(1-oxetan-3-yl-azetidin-3-yl)-pyridin-2-yl]-(4-trifluoromethyl-pyridin-2-yl)-amine]
19 | 4 | Cn1cc(-c2cc(C3CCOCC3)cc(Nc3cc(OC(F)F)ccn3)n2)cn1 [Example 118, (4-Difluoromethoxy-pyridin-2-yl)-[6-(1-methyl-1H-pyrazol-4-yl)-4-(tetrahydro-pyran-4-yl)-pyridin-2-yl]-amine]
20 | 0.2 | CC(=O)N1CCC(c2cc(Nc3cc(C#N)ccn3)nc(N3CCC[C@H]3C)c2)CC1 [Example 119, 2-[1′-Acetyl-6-((R)-2-methyl-pyrrolidin-1-yl)-1′,2′,3′,4′,5′,6′-hexahydro-[4,4′]bipyridinyl-2-ylamino]-isonicotinonitrile]
21 | 170 | FC(F)(F)c1ccnc(Nc2cc(C3CCN(C4COC4)CC3)ccn2)c1 [Example 120, (1′-Oxetan-3-yl-1′,2′,3′,4′,5′,6′-hexahydro-[4,4′]bipyridinyl-2-yl)-(4-trifluoromethyl-pyridin-2-yl)-amine]
22 | 0.2 | C[C@@H]1CCCN1c1cc(C2CCN(C3COC3)CC2)cc(Nc2cc(C#N)ccn2)n1 [Example 121, 2-[6-((R)-2-Methyl-pyrrolidin-1-yl)-1′-oxetan-3-yl-1′,2′,3′,4′,5′,6′-hexahydro-[4,4′]bipyridinyl-2-ylamino]-isonicotinonitrile]
23 | 0.4 | Cn1cc(-c2cc(C3CCOCC3)cc(Nc3cc(C(F)(F)F)ccn3)n2)cn1 [Example 122, [6-(1-Methyl-1H-pyrazol-4-yl)-4-(tetrahydro-pyran-4-yl)-pyridin-2-yl]-(4-trifluoromethyl-pyridin-2-yl)-amine]
24 | 0.2 | C[C@@H]1CCCN1c1cc(C2CCOCC2)cc(Nc2cc(C#N)ccn2)n1 [Example 123, 2-[6-((R)-2-Methyl-pyrrolidin-1-yl)-4-(tetrahydro-pyran-4-yl)-pyridin-2-ylamino]-isonicotinonitrile]
25 | 710 | N#Cc1ccnc(Nc2cc(C3CCN(C4COC4)CC3)ccn2)c1 [Example 124, 2-(1′-Oxetan-3-yl-1′,2′,3′,4′,5′,6′-hexahydro-[4,4′]bipyridinyl-2-ylamino)-isonicotinonitrile]
26 | 3.1 | C[C@@H]1CCCN1c1cc(C2CCOCC2)cc(Nc2cc(C(F)(F)F)ccn2)n1 [Example 125, [6-((R)-2-Methyl-pyrrolidin-1-yl)-4-(tetrahydro-pyran-4-yl)-pyridin-2-yl]-(4-trifluoromethyl-pyridin-2-yl)-amine]
27 | 6.6 | CS(=O)(=O)N1CC(c2cc(Nc3cc(C(F)(F)F)ccn3)nc(N3CCC(F)(F)C3)c2)C1 [Example 126, [6-(3,3-Difluoro-pyrrolidin-1-yl)-4-(1-methanesulfonyl-azetidin-3-yl)-pyridin-2-yl]-(4-trifluoromethyl-pyridin-2-yl)-amine]
28 | 2.9 | CC(=O)N1CC(c2cc(Nc3cc(C(F)(F)F)ccn3)nc(N3CCC(F)(F)C3)c2)C1 [Example 127, 1-{3-[2-(3,3-Difluoro-pyrrolidin-1-yl)-6-(4-trifluoromethyl-pyridin-2-ylamino)-pyridin-4-yl]-azetidin-1-yl}-ethanone]
29 | 450 | CS(=O)(=O)N1CCC(c2ccnc(Nc3cc(C#N)ccn3)c2)CC1 [Example 128, 2-(1′-Methanesulfonyl-1′,2′,3′,4′,5′,6′-hexahydro-[4,4′]bipyridinyl-2-ylamino)-isonicotinonitrile]
30 | 510 | CC(=O)N1CCC(c2ccnc(Nc3cc(C#N)ccn3)c2)CC1 [Example 129, 2-(1′-Acetyl-1′,2′,3′,4′,5′,6′-hexahydro-[4,4′]bipyridinyl-2-ylamino)-isonicotinonitrile]
31 | 0.88 | N#Cc1ccnc(Nc2cc(C3CCOCC3)cc(N3CCC(F)(F)C3)n2)c1 [Example 130, 2-[6-(3,3-Difluoro-pyrrolidin-1-yl)-4-(tetrahydro-pyran-4-yl)-pyridin-2-ylamino]-isonicotinonitrile]
32 | 2.12 | CC1CCCN1c1cc(C2CCN(S(C)(=O)=O)C2)cc(Nc2cc(C(F)(F)F)ccn2)n1 (centres unmarked) [Example 132, [4-(1-Methanesulfonyl-pyrrolidin-3-yl)-6-(2-methyl-pyrrolidin-1-yl)-pyridin-2-yl]-(4-trifluoromethyl-pyridin-2-yl)-amine]

— patent US9399636B2, “Substituted dipyridylamines and uses thereof” (Genentech, Inc., priority 2012, dated 2016)
